# According to patent publication US20260184693A1, “INHIBITORS OF SOLUTE CARRIER FAMILY 6A MEMBER 19 (SLC6A19) AND METHODS OF USE THEREOF” (Maze Therapeutics, Inc., priority 2022, published 2026):
# Biological target: T1, human SLC6A19 (Homo sapiens, UniProt Q695T7)
# T1 construct: expressed in transfected cells
# T1 sequence (Q695T7 1-634): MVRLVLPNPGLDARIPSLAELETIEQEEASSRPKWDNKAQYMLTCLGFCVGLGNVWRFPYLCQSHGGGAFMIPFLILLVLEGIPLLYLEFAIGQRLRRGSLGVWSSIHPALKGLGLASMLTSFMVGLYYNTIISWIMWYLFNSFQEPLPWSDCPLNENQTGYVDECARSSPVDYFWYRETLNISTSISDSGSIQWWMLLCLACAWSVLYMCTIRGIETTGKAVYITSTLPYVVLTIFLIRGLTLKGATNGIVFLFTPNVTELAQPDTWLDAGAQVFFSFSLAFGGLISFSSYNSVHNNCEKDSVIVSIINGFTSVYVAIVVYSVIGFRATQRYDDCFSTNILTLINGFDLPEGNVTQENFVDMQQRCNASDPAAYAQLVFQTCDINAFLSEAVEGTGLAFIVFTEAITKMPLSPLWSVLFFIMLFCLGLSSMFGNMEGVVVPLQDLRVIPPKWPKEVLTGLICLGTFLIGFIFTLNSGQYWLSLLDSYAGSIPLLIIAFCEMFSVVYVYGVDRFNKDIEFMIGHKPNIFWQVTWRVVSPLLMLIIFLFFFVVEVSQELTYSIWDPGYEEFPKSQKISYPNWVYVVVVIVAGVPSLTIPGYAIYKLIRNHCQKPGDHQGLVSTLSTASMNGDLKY
# T1 sequence (Q9HBJ8 15-222 partner): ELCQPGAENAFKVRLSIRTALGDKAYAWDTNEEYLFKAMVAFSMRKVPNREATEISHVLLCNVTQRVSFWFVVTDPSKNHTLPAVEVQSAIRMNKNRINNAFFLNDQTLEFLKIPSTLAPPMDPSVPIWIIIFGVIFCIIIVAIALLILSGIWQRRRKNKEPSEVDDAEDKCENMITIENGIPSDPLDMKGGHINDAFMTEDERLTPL
# Assay: Example B2: 13C6,15N-isoleucine uptake, RapidFire mass spectrometry, in CHO cells with doxycycline-inducible expression of human SLC6A19 and TMEM27
# Assay type: cell-based
# Conditions: read-out: SLC6A19_RapidFire Uptake Assay IC50
# Method: Assay ready vials of CHO cells with doxycycline inducible expression of human SLC6A19 and TMEM27 were thawed, plated in T175 flasks containing DMEM/F12 media, 10% FBS, 100 Penicillin-Streptomycin, 1× UltraGlutamate, 1 mM Sodium Pyruvate, Sodium Bicarbonate (7.5 mL of 7.5% solution in 500 mL media final), […] Blasticidin, 150 µg/mL Hygromycin B Gold, and 500 µg/mL G418, and incubated (humidified, 37° C. with […]) for 48 hours. Media was then removed, flasks were washed with 20 mL of DPBS, and 5 mL of TryμLE™ Express was added to each flask to initiate cell dissociation. After 5 minutes, 10 mL of cell culture media was added to each flask and mixed. The cell suspension was collected and centrifuged for 5 minutes at 200×g. The supernatant was removed, and the pellet was resuspended in 10 mL of cell culture media. Resuspended cells were counted using a Vi-Cell. 30 μL/well (20,000 cells/well) of cell suspension was added to Poly-D-Lysine 384-well black/clear plates. Plates were incubated (humidified, 37° C. with 5% CO2) for 24 hours. To induce expression of human SLC6A19 and TMEM27, 10 μL of assay culture media containing 4 μg/mL doxycycline was added to each well. Assay plates were then incubated (humidified, 37° C. with 5% CO2) overnight. After incubation, the media was removed, and wells were washed 3 times with 40 μL of warmed DPBS. […] All compounds were plated in a duplicate 10-point dilution series that consisted of 2-fold dilutions. The plates were incubated (humidified, 37° C. with 5% CO2) with compound for 20 minutes. Afterwards, 20 μL/well of 2 mM 13C6,15N-1-isoleucine was added to each well and plates were incubated again (humidified, 37° C. with 5% CO2) for another 20 minutes. Assay buffer was then removed, and plates were washed. 70 μL/well of stop solution (75% acetonitrile, 25% HPLC grade water, 250 nM 1-leucine-1-13 C (RapidFire standard)) was added to each well. The plates were sealed and then placed in a −20° C. freezer for 20 minutes. The plates were thawed at room temperature for 20 minutes and then centrifuge for 20 minutes at 3000 rpm. Using an ABSciex API4000 mass spectrometer, processed samples were loaded onto the graphitic carbon SPE-column. The time for aspiration, load/wash, elution and re-equilibration time was 600, 1500, 3000 and 500 milliseconds, respectively. Peak areas were calculated using RapidFire Integrator software.
row,IC50,SMILES
1,0.354 µM,"CC(O)C(=O)N1CCC[C@@H](N(C)C(=O)NCc2cc3cc(Cl)ccc3[nH]2)C1 (stereo partly drawn) [Compound 12, 3-((5-chloro-1H-indol-2-yl)methyl)-1-((3R)-1-(2-hydroxypropanoyl)piperidin-3-yl)-1-methylurea]"
2,1.61 µM,"CN(C(=O)NCc1cc2cc(Cl)ccc2[nH]1)[C@@H]1CCCN(C(=O)c2c[nH]cn2)C1 [Compound 13, (R)-1-(1-(1H-imidazole-4-carbonyl)piperidin-3-yl)-3-((5-chloro-1H-indol-2-yl)methyl)-1-methylurea]"
3,0.467 µM,"CN(C(=O)NCc1cc2cc(Cl)ccc2[nH]1)[C@@H]1CCCN(C(=O)[C@H]2C[C@@H]2F)C1 [Compound 14, 3-((5-chloro-1H-indol-2-yl)methyl)-1-((R)-1-((1R,2S)-2-fluorocyclopropane-1-carbonyl)piperidin-3-yl)-1-methylurea]"
4,0.539 µM,"COCC(=O)N1CCC[C@@H](N(C)C(=O)NCc2cc3cc(Cl)ccc3[nH]2)C1 [Compound 15, (R)-3-((5-chloro-1H-indol-2-yl)methyl)-1-(1-(2-methoxyacetyl)piperidin-3-yl)-1-methylurea]"
5,> 4.29 µM,"CN(C(=O)NCc1cc2cc(Cl)ccc2[nH]1)[C@@H]1CCCN(C(=O)C2(F)CC2)C1 [Compound 16, (R)-3-((5-chloro-1H-indol-2-yl)methyl)-1-(1-(1-fluorocyclopropane-1-carbonyl)piperidin-3-yl)-1-methylurea]"
6,0.151 µM,"CN(C(=O)NCc1cc2cc(Cl)ccc2[nH]1)[C@@H]1CCCN(C(=O)C2CC2)C1 [Compound 17, (R)-3-((5-chloro-1H-indol-2-yl)methyl)-1-(1-(cyclopropanecarbonyl)piperidin-3-yl)-1-methylurea]"
7,2.25 µM,"CN(C(=O)NCc1cc2cc(Cl)ccc2[nH]1)[C@@H]1CCCN(C(=O)c2ncc[nH]2)C1 [Compound 18, (R)-1-(1-(1H-imidazole-2-carbonyl)piperidin-3-yl)-3-((5-chloro-1H-indol-2-yl)methyl)-1-methylurea]"
8,0.484 µM,"CN(C(=O)NCc1cc2cc(Cl)ccc2[nH]1)[C@@H]1CCCN(C(=O)C2CC2(F)F)C1 (stereo partly drawn) [Compound 19, 3-((5-chloro-1H-indol-2-yl)methyl)-1-((3R)-1-(2,2-difluorocyclopropane-1-carbonyl)piperidin-3-yl)-1-methylurea]"
9,8.96 µM,"CN(C(=O)NCc1cc2cc(Cl)ccc2[nH]1)[C@@H]1CCCN(C(=O)c2cncnc2)C1 [Compound 20, (R)-3-((5-chloro-1H-indol-2-yl)methyl)-1-methyl-1-(1-(pyrimidine-5-carbonyl)piperidin-3-yl)urea]"
10,4.37 µM,"CN(C(=O)NCc1cc2cc(Cl)ccc2[nH]1)[C@@H]1CCCN(C(=O)c2ncccn2)C1 [Compound 22, (R)-3-((5-chloro-1H-indol-2-yl)methyl)-1-methyl-1-(1-(pyrimidine-2-carbonyl)piperidin-3-yl)urea]"
11,5.84 µM,"CN(C(=O)NCc1cc2cc(Cl)ccc2[nH]1)[C@@H]1CCCN(C(=O)c2ccnnc2)C1 [Compound 23, (R)-3-((5-chloro-1H-indol-2-yl)methyl)-1-methyl-1-(1-(pyridazine-4-carbonyl)piperidin-3-yl)urea]"
12,4.2 µM,"CN(C(=O)NCc1cc2cc(Cl)ccc2[nH]1)[C@@H]1CCCN(C(=O)c2ncc(F)cn2)C1 [Compound 24, (R)-3-((5-chloro-1H-indol-2-yl)methyl)-1-(1-(5-fluoropyrimidine-2-carbonyl)piperidin-3-yl)-1-methylurea]"
13,11.6 µM,"Cc1n[nH]nc1C(=O)N1CCC[C@@H](N(C)C(=O)NCc2cc3cc(Cl)ccc3[nH]2)C1 [Compound 25, (R)-3-((5-chloro-1H-indol-2-yl)methyl)-1-methyl-1-(1-(5-methyl-2H-1,2,3-triazole-4-carbonyl)piperidin-3-yl)urea]"
14,5.26 µM,"CN(C(=O)NCc1cc2cc(Cl)ccc2[nH]1)[C@@H]1CCCN(C(=O)c2cnnn2C)C1 [Compound 26, (R)-3-((5-chloro-1H-indol-2-yl)methyl)-1-methyl-1-(1-(1-methyl-1H-1,2,3-triazole-5-carbonyl)piperidin-3-yl)urea]"

# Second part, the molecule before the results:
row,SMILES,IC50
1,"CN(C(=O)NCc1cc2cc(Cl)ccc2[nH]1)[C@@H]1CCCN(C(=O)C2COC2)C1 [Compound 1, (R)-3-((5-chloro-1H-indol-2-yl)methyl)-1-methyl-1-(1-(oxetane-3-carbonyl)piperidin-3-yl)urea]",0.252 µM
2,"CN(C(=O)NCc1cc2cc(Cl)ccc2[nH]1)[C@@H]1CCCN(C(=O)CN2CCOC2=O)C1 [Compound 2, (R)-3-((5-chloro-1H-indol-2-yl)methyl)-1-methyl-1-(1-(2-(2-oxooxazolidin-3-yl)acetyl)piperidin-3-yl)urea]",3.52 µM
3,"CN(C(=O)NCc1cc2cc(Cl)ccc2[nH]1)[C@@H]1CCCN(C(=O)CC#N)C1 [Compound 3, (R)-3-((5-chloro-1H-indol-2-yl)methyl)-1-(1-(2-cyanoacetyl)piperidin-3-yl)-1-methylurea]",0.359 µM
4,"CN(C(=O)NCc1cc2cc(Cl)ccc2[nH]1)[C@@H]1CCCN(C(=O)CO)C1 [Compound 4, (R)-3-((5-chloro-1H-indol-2-yl)methyl)-1-(1-(2-hydroxyacetyl)piperidin-3-yl)-1-methylurea]",0.62 µM
5,"CN(C(=O)NCc1cc2cc(Cl)ccc2[nH]1)[C@@H]1CCCN(C(=O)c2ccon2)C1 [Compound 5, (R)-3-((5-chloro-1H-indol-2-yl)methyl)-1-(1-(isoxazole-3-carbonyl)piperidin-3-yl)-1-methylurea]",0.578 µM
6,"CN(C(=O)NCc1cc2cc(Cl)ccc2[nH]1)[C@@H]1CCCN(C(=O)c2ccno2)C1 [Compound 6, (R)-3-((5-chloro-1H-indol-2-yl)methyl)-1-(1-(isoxazole-5-carbonyl)piperidin-3-yl)-1-methylurea]",0.198 µM
7,"CN(C(=O)NCc1cc2cc(Cl)ccc2[nH]1)[C@@H]1CCCN(C(=O)c2cocn2)C1 [Compound 7, (R)-3-((5-chloro-1H-indol-2-yl)methyl)-1-methyl-1-(1-(oxazole-4-carbonyl)piperidin-3-yl)urea]",0.685 µM
8,"CN(C(=O)NCc1cc2cc(Cl)ccc2[nH]1)[C@@H]1CCCN(C(=O)CC(F)(F)F)C1 [Compound 8, (R)-3-((5-chloro-1H-indol-2-yl)methyl)-1-methyl-1-(1-(3,3,3-trifluoropropanoyl)piperidin-3-yl)urea]",0.491 µM
9,"CN(C(=O)NCc1cc2cc(Cl)ccc2[nH]1)[C@@H]1CCCN(C(=O)c2nccs2)C1 [Compound 9, (R)-3-((5-chloro-1H-indol-2-yl)methyl)-1-methyl-1-(1-(thiazole-2-carbonyl)piperidin-3-yl)urea]",5.37 µM
10,"CCC(=O)N1CCC[C@@H](N(C)C(=O)NCc2cc3cc(Cl)ccc3[nH]2)C1 [Compound 10, (R)-3-((5-chloro-1H-indol-2-yl)methyl)-1-methyl-1-(1-propionylpiperidin-3-yl)urea]",0.125 µM
11,"CN(C(=O)NCc1cc2cc(Cl)ccc2[nH]1)[C@@H]1CCCN(C(=O)c2cn[nH]c2)C1 [Compound 11, (R)-1-(1-(1H-pyrazole-4-carbonyl)piperidin-3-yl)-3-((5-chloro-1H-indol-2-yl)methyl)-1-methylurea]",0.743 µM
